# Laboratory results as given in ChEMBL document CHEMBL1201862, “PubChem BioAssay data set” (2004).
# Where “and” joins values, the source holds several entries; their conditions need not be identical. Identical values can stand only once.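 Grown in 96-well plates, cells were treated for 48 hours with each compound at five concentrations. Insufficient inhibition: endpoint recorded as highest concentration tested. Here, GI50 denotes the concentration required for 50% inhibition of growth.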 Calls of active or inactive are those of the source. Cut-off read from the data, not from the text of the source: active = GI50 up to about 1.1 µM and inactive = higher.
# Columns and labels:
# Assay in all cases: inhibition of tumour cell growth, NCI panel, 48 h
# NCI-H226 = test system: NCI-H226
# OVCAR-3 = test system: OVCAR-3
# KM12 = test system: KM12
# TK-10 = test system: TK-10
# SK-OV-3 = test system: SK-OV-3
# U-251 = test system: U-251
# HOP-92 = test system: HOP-92
# UO-31 = test system: UO-31
# MOLT-4 = test system: MOLT-4
# IGROV-1 = test system: IGROV-1
# DU-145 = test system: DU-145
# NCI-H522 = test system: NCI-H522
# SF-539 = test system: SF-539
# MDA-MB-435 = test system: MDA-MB-435
# BT-549 = test system: BT-549
# HT-29 = test system: HT-29
# LOX IMVI = test system: LOX IMVI
# SNB-75 = test system: SNB-75
# HL-60 = test system: HL-60
# A498 = test system: A498
Structure (SMILES),GI50 (NCI-H226),GI50 (OVCAR-3),GI50 (KM12),GI50 (TK-10),GI50 (SK-OV-3),GI50 (U-251),GI50 (HOP-92),GI50 (UO-31),GI50 (MOLT-4),GI50 (IGROV-1),GI50 (DU-145),GI50 (NCI-H522),GI50 (SF-539),GI50 (MDA-MB-435),GI50 (BT-549),GI50 (HT-29),GI50 (LOX IMVI),GI50 (SNB-75),GI50 (HL-60),GI50 (A498)
Oc1ccccc1/C=N/N1C(=S)N(C23CC4CC(CC(C4)C2)C3)C(=N\c2ccccc2)/C1=N/c1ccccc1,> 100 µM (inactive),> 100 µM (inactive),> 100 µM (inactive),> 100 µM (inactive),> 100 µM (inactive),76.6 µM (inactive),29.7 µM (inactive),> 100 µM (inactive),3.92 µM (inactive),> 100 µM (inactive),> 100 µM (inactive),12.8 µM (inactive),> 100 µM (inactive),> 100 µM (inactive),38.9 µM (inactive),29.6 µM (inactive),–,–,–,–
CC(=O)OC1CC2C(=O)CC1(C)C2(C)C (stereo unspecified),> 100 µM (inactive),> 100 µM (inactive),> 100 µM (inactive),> 100 µM (inactive),> 100 µM (inactive),> 100 µM (inactive),> 100 µM (inactive),> 100 µM (inactive),> 100 µM (inactive),–,> 100 µM (inactive),> 100 µM (inactive),> 100 µM (inactive),> 100 µM (inactive),–,> 100 µM (inactive),> 100 µM (inactive),67.9 µM (inactive) and > 83.6 µM (inactive),> 100 µM (inactive),> 100 µM (inactive)
O=c1[nH]c2nc(S)nc(S)c2[nH]1,> 100 µM (inactive),–,> 100 µM (inactive),> 100 µM (inactive),–,> 100 µM (inactive),> 100 µM (inactive),> 100 µM (inactive),> 100 µM (inactive),> 100 µM (inactive),–,> 100 µM (inactive),–,> 100 µM (inactive),> 100 µM (inactive),> 100 µM (inactive),> 100 µM (inactive),–,> 100 µM (inactive),> 100 µM (inactive)
OC(C/C=N/N=C/CC(O)(C(F)(F)Cl)C(F)(F)Cl)(C(F)(F)Cl)C(F)(F)Cl,> 10 µM (inactive),> 10 µM (inactive),> 10 µM (inactive),> 10 µM (inactive),> 10 µM (inactive),> 10 µM (inactive),7.19 µM (inactive),> 10 µM (inactive),> 10 µM (inactive),> 10 µM (inactive),> 10 µM (inactive),> 10 µM (inactive),> 10 µM (inactive),> 10 µM (inactive),–,> 10 µM (inactive),> 10 µM (inactive),> 10 µM (inactive),> 10 µM (inactive),> 10 µM (inactive)
Cc1cccc2nc3c(=O)[nH]c(=O)nc-3n(C)c12,> 100 µM (inactive),28 µM (inactive),31.9 µM (inactive),> 100 µM (inactive),> 100 µM (inactive),86.5 µM (inactive),–,–,43 µM (inactive),> 100 µM (inactive),> 100 µM (inactive),29.2 µM (inactive),41.1 µM (inactive),17.6 µM (inactive),84.9 µM (inactive),33.2 µM (inactive),54 µM (inactive),> 100 µM (inactive),15.7 µM (inactive),–
NNC(=S)NCCNC(=S)NN,–,> 100 µM (inactive),> 100 µM (inactive),–,> 100 µM (inactive),> 100 µM (inactive),–,> 100 µM (inactive),> 100 µM (inactive),> 100 µM (inactive),> 100 µM (inactive),> 100 µM (inactive),–,> 100 µM (inactive),> 100 µM (inactive),> 100 µM (inactive),> 100 µM (inactive),> 100 µM (inactive),> 100 µM (inactive),–
COc1ccc(-n2c(-c3ccccc3)cc(-c3cccs3)c2-c2cccs2)cc1,> 100 µM (inactive),> 100 µM (inactive),> 100 µM (inactive),> 100 µM (inactive),> 100 µM (inactive),> 100 µM (inactive),> 100 µM (inactive),> 100 µM (inactive),> 100 µM (inactive),> 100 µM (inactive),> 100 µM (inactive),> 100 µM (inactive),39.1 µM (inactive),> 100 µM (inactive),–,> 100 µM (inactive),> 100 µM (inactive),88.9 µM (inactive),–,> 100 µM (inactive)
COc1cc(/C=C\C(=O)O)ccc1OCc1ccccc1,–,> 100 µM (inactive),0.217 µM (active),> 100 µM (inactive),> 100 µM (inactive),> 100 µM (inactive),20.3 µM (inactive),> 100 µM (inactive),> 100 µM (inactive),> 100 µM (inactive),> 100 µM (inactive),> 100 µM (inactive),> 100 µM (inactive),> 100 µM (inactive),–,–,> 100 µM (inactive),–,> 100 µM (inactive),> 100 µM (inactive)
Cc1cn2c(/C=N/NC(=N)N)c(-c3ccc(Cl)c([N+](=O)[O-])c3)nc2s1,1.89 µM (inactive),1.13 µM (inactive),0.387 µM (active),1.68 µM (inactive),1.76 µM (inactive),0.268 µM (active),1.46 µM (inactive),1.88 µM (inactive),–,1.03 µM (active),1.79 µM (inactive),0.16 µM (active),1.73 µM (inactive),0.611 µM (active),–,0.55 µM (active),0.409 µM (active),1.27 µM (inactive),0.116 µM (active),0.07 µM (active)
CC(=O)NNc1nc(C)c(C(=O)NNC(=O)C(=O)Nc2ccc(C)c(C)c2)s1,> 100 µM (inactive),21.3 µM (inactive),42.5 µM (inactive),> 100 µM (inactive),> 100 µM (inactive),96.4 µM (inactive),> 100 µM (inactive),74 µM (inactive),39.6 µM (inactive),> 100 µM (inactive),–,18.5 µM (inactive),> 100 µM (inactive),–,–,> 100 µM (inactive),16.7 µM (inactive),> 100 µM (inactive),70.8 µM (inactive),> 100 µM (inactive)
NC(=O)Cn1c(=O)oc2cc(C(=O)CN3CCOCC3)ccc21,> 100 µM (inactive),> 100 µM (inactive),> 100 µM (inactive),–,> 100 µM (inactive),> 100 µM (inactive),–,–,> 100 µM (inactive),> 100 µM (inactive),> 100 µM (inactive),–,> 100 µM (inactive),> 100 µM (inactive),–,> 100 µM (inactive),> 100 µM (inactive),18.5 µM (inactive),> 100 µM (inactive),> 100 µM (inactive)
CC1(C)C(C#N)C1C1=C(N2CCOCC2)[C@]2(C)C(OC(=O)c3ccccc3)CC[C@@H]2C1 (stereo partly specified),> 100 µM (inactive),> 100 µM (inactive),> 100 µM (inactive),> 100 µM (inactive),> 100 µM (inactive),> 100 µM (inactive),61.2 µM (inactive),> 100 µM (inactive),34.9 µM (inactive),> 100 µM (inactive),–,> 100 µM (inactive),> 100 µM (inactive),> 100 µM (inactive),55.1 µM (inactive),50.1 µM (inactive),–,20.5 µM (inactive),–,> 100 µM (inactive)
O=C(OCC(Cl)(Cl)Cl)O[C@@H]1CCCC1(c1ccccc1)c1ccccc1,37.5 µM (inactive),–,45.3 µM (inactive),> 100 µM (inactive),> 100 µM (inactive),> 100 µM (inactive),–,> 100 µM (inactive),6.81 µM (inactive),> 100 µM (inactive),> 100 µM (inactive),38.7 µM (inactive),–,24.2 µM (inactive),> 100 µM (inactive),> 100 µM (inactive),76.7 µM (inactive),> 100 µM (inactive),–,–
O=C1/C(=C/c2ccc(Cl)cc2)Oc2cc(O)ccc21 [6-HYDROXY-4'-CHLORO AURONE],28.2 µM (inactive),34.7 µM (inactive),38.5 µM (inactive),30.5 µM (inactive),30.6 µM (inactive),26.5 µM (inactive),–,20.5 µM (inactive),19.6 µM (inactive),33.4 µM (inactive),41.4 µM (inactive),23.8 µM (inactive),21.9 µM (inactive),36.1 µM (inactive),26.8 µM (inactive),–,–,31.6 µM (inactive),18.1 µM (inactive),–
CCOC(=O)c1sc2c(c1OC(=O)c1ccc(OC)cc1)c(=O)n(-c1ccccc1)c(=S)n2-c1ccccc1,24.9 µM (inactive),> 100 µM (inactive),> 100 µM (inactive),> 100 µM (inactive),> 100 µM (inactive),> 100 µM (inactive),20.9 µM (inactive),–,> 100 µM (inactive),> 100 µM (inactive),> 100 µM (inactive),1.41 µM (inactive),77.8 µM (inactive),> 100 µM (inactive),–,> 100 µM (inactive),> 100 µM (inactive),> 100 µM (inactive),> 100 µM (inactive),17.1 µM (inactive)
O=C1/C(=C/c2ccc(Cl)cc2)NC(=S)N1CN1CCOCC1,> 100 µM (inactive),> 100 µM (inactive),> 100 µM (inactive),> 100 µM (inactive),> 100 µM (inactive),> 100 µM (inactive),> 100 µM (inactive),> 100 µM (inactive),> 100 µM (inactive),> 100 µM (inactive),> 100 µM (inactive),–,–,> 100 µM (inactive),–,> 100 µM (inactive),> 100 µM (inactive),> 100 µM (inactive),–,57.3 µM (inactive)
